# From patent publication US8058258B2, “Methods for cancer therapy and stem cell modulation” (Agency for Science, Technology and Research, priority 2006, dated 2011)
# Experiments:
# Format in all cases: cell-based, human
# [1] = tested on: SUZ12 binding to PRC2 target gene promoters; assay: ChIP of SUZ12 binding to PRC2 target gene promoters; conditions: MCF-7 cells, 5 μM, 48 hours
# Protocol: ChIP assays were performed as described previously. […] MCF-7 cell were seeded into 6-well plates at 30% confluence and treated with or without 3-deazaneplanocin (5 μM) for 48 hours. Cells were washed once in 1× phosphate-buffered saline (PBS) and then treated with 1% formaldehyde in PBS at 37° C. for […] followed by the addition of glycine to a final concentration of 0.125 M for 5 mM. Cells were then scraped on ice and centrifuged at 1500 rpm for 5 mM at 4° C. After washing with PBS cell pellets were resuspended in 1 mL of cold lysis buffer (10 mM HEPES at pH 7.5, 1 mM EDTA at pH 8.0, 400 mM NaCl, 10% glycerol, 0.5% NP-40, 0.5 mM phenylmethylsulfonyl fluoride, and protease inhibitors [1 mM benzamidine, 3 mg/mL leupeptin, 0.1 mg/mL bacitracin, 1 mg/mL macroglobulin]) followed by centrifugation at 11,500 rpm in a microfuge for 5 min at 4° C. to remove protein not cross-linked to chromatin. The resulting pellets were then resuspended again in 1 mL of cold lysis buffer and sonicated with a Heat Systems-Ultrasonics, Inc. W-220 sonicator at 20% output for a total of 2 mM (pulsed: 30 sec on/30 sec off). The resulting solution was cleared by centrifugation at maximum speed in a microfuge for 10 mM at 4° C. At this point 5% of the solution was taken and stored at −20° C. for the input chromatin sample. […]
# MCF-7 cells = assay: Microarray gene expression analysis (Illumina BeadChip) in MCF-7 cells
# Protocol: Cells were maintained in DMEM supplemented with 10% fetal bovine serum with glutamine, penicillin, and streptomycin. For drug treatment, cells were seeded the day before the drug treatment. Cells were treated with 5 μM 3-Deazaneplanocin A or 2 μM 5-aza-2′-deoxycytidine (5-AzaC; Sigma) for 72 hours and trichostatin A (TSA; Sigma) at 100 nM for 24 hours. For co-treatment of cells with 5-AzaC and TSA, 5-Aza was added for 48 hours and followed by TSA for 24 hours.
# The Smartpool siRNA duplexes of selected PRC2 targets and the non-targeting control were purchased from Dharmacon (Lafayett, Colo.). […] Cells were transfected with 50 nM final concentration of siRNA duplexes using Lipofectamine 2000 (Invitrogen) following the manufacturer's instructions.
# Total RNA was isolated from cell lines using Trizol (Invitrogen) and was converted to cDNA using an RNA Amplification kit (Ambion). The microarray hybridisation was performed using the Illumina Gene Expression BeadChip (Illumina) and data analysis was performed using GeneSpring software from Agilent Technologies.
# The effects on gene expression were analysed using an Illumina Gene Expression BeadChip. […] To be inclusive for the subsequent analysis, all 1402 genes were considered to be potential PRC2 target genes.
# To identify the PRC2 targets specifically repressed in breast cancer cells, the expression profiles of the 140 putative PRC2 target genes in MCF-7 cells and MCF10A cells were compared by gene clustering analysis (FIG. 4C).
# DNMT1 or DNMT3B = assay: Western blot of DNMT protein expression; conditions: HCT116 or MCF-7 cells, 5 μM, 48 and 72 hours
# Protocol: (§1) Cell lines used in these examples were purchased from the American Type Culture Collection (Manassas, Va.). Cells were maintained in DMEM supplemented with 10% fetal bovine serum with glutamine, penicillin, and streptomycin. For drug treatment, cells were seeded the day before the drug treatment. Cells were treated with 5 μM 3-Deazaneplanocin A or 2 μM 5-aza-2'-deoxycytidine (5-AzaC; Sigma) for 72 hours and trichostatin A (TSA; Sigma) at 100 nM for 24 hours. For co-treatment of cells with 5-AzaC and TSA, 5-Aza was added for 48 hours and followed by TSA for 24 hours. Cell pellets were first lysed in RadioImmuno Precipitation Assay (RIPA) buffer, consisting of an aqueous solution of 25 mM Tris-HCl pH 7.6, 150 mM NaCl, 1% Nonidet-P 40 (NP-40), 1% sodium deoxycholate and 0.1% sodium dodecylsulfate (SDS), before further sonicated using a tissue homogeniser to release all the proteins. Equal amounts of protein were separated on SDS-polyacrylamide gels and transferred to polyvinylidene difluoride (PVDF) membranes. The blots were probed with antibodies against: EED (07-368), SUZ12 (07-379), SUV39H1 (07-550), BMI1 (05-637), tri-methylated H3-K27 (07-449), tri-methylated H3-K9 (07-442) and Acetyl-Histone H3 (06-599), and were purchased from Upstate. EZH2 (AC22) and Histone H3 (3H1) were from Cell Signaling. […]
# [2] = tested on: histone H3 methylation at lysine 9 (H3-K9); assay: Western blot of histone H3 lysine 9 methylation; conditions: HCT116 or MCF-7 cells, 5 μM, 48 and 72 hours
# Protocol: as §1
# Suv39h1 = assay: Western blot of Suv39h1 protein levels; conditions: HCT116 or MCF-7 cells, 5 μM, 48 and 72 hours
# Protocol: as §1
# histone acetylation = assay: Western blot of histone acetylation; conditions: HCT116 or MCF-7 cells, 5 μM, 48 and 72 hours
# Protocol: as §1
smiles,measurement,setting,value
"Nc1nccc2c1ncn2C1C=C(CO)C(O)C1O (stereo not shown) [3-deazaneplanocin, 5-(4-amino-1H-imidazo[4,5-c]pyridin-1-yl)-3-(hydroxymethyl)-3-cyclopentene-1,2-diol]",SUZ12 binding to PRC2 target gene promoters (ChIP),[1],markedly reduced
same,expression of the 47 PRC2 target genes repressed in MCF-7 relative to MCF10A,MCF-7 cells,re-expression
same,number of genes upregulated ≧2-fold,MCF-7 cells; 72 h,750 genes
same,DNMT1 or DNMT3B protein expression,DNMT1 or DNMT3B,did not cause a change
same,histone H3 methylation at lysine 9 (H3-K9),[2],not affected
same,Suv39h1 protein levels,Suv39h1,not affected
same,histone acetylation,histone acetylation,did not affect
